From publication PMC5830590 (British Journal of Cancer, 2018)
“Also recorded” adds a separate entry of the source. One block for each molecule: values may come before it.

Columns and labels:
[1] = Urinary excretion up to 25 h after start of copanlisib infusion; assay type: in vivo, human; settings: 25 h urine collection interval; expansion cohort
[2] = Plasma pharmacokinetics on cycle 1, day 1; assay type: in vivo, human
PIK3CA-mutated cells = settings: preclinical studies; ref Liu et al, 2013; cited from earlier work
[3] = system: advanced or refractory solid tumours; test: Tumour response by RECIST version 1.1; assay type: in vivo, human
[4] = system: patients with advanced malignancies; test: Dose escalation; assay type: in vivo, human
[5] = system: patients with advanced malignancies; test: Adverse events; assay type: in vivo, human
[6] = system: class I PI3K (PI3K-δ and PI3K-α isoforms); settings: pan-class I PI3K inhibitor; ref Liu et al, 2013; Haike et al, 2014; cited from earlier work
[7] = system: multidrug and toxin extrusion protein 2K (MATE2-K); settings: in vitro; no reference given; cited from earlier work
[8] = system: patients with chronic lymphocytic leukaemia, small lymphocytic lymphoma and indolent non-Hodgkin’s lymphomas; settings: ref US Food and Drug Administration, 2016; cited from earlier work

SMILES: COc1c(OCCCN2CCOCC2=O)ccc2c3n(c(=NC(=O)c4cnc(N)nc4)nc12)CCN3 [M-1]
amount excreted into urine, % of dose [1]: ~0.9%
median tmax of M-1, range across cohorts ([2]; copanlisib 0.8 mg kg^−1, cycle 1, day 1): 2 to 4 h
effect of co-administration of CisGem on plasma exposure (Cmax and AUC(0–25)) ([2]; in vivo): no influence
estimated geometric mean terminal half-life of M-1 versus copanlisib ([2]; in vivo): comparable with that of copanlisib

SMILES: COc1c(OCCCN2CCOCC2)ccc2c1N=C(NC(=O)c1cnc(N)nc1)N1CCN=C21 [copanlisib]
anti-tumour activity in PIK3CA-mutated cells (PIK3CA-mutated cells): anti-tumour activity
response rate in patients with BTC who had not received prior anti-cancer therapy ([3]; 4 out of 11 patients): 36%
response in patients with BTC who had received prior CisGem or gemcitabine-containing chemotherapy ([3]; 12 patients): No response
objective response rate overall ([3]; all 50 patients, all cohorts): 10%
stable disease, patients ([3]; all 50 patients, 19 patients): 38%
partial response, patients ([3]; all 50 patients, four patients): 8%
complete response, patients ([3]; all 50 patients, one patient): 2%
amount excreted into urine, % of dose [1]: about 4.9%
RP2D of copanlisib in combination with CisGem ([4]; cisplatin 25 mg m^−2 + gemcitabine 1000 mg m^−2, days 1 and 8 of a 21-day cycle): 0.8 mg/kg
RP2D of copanlisib in combination with gemcitabine ([4]; gemcitabine 1000 mg m^−2, days 1, 8 and 15 of a 28-day cycle): 0.8 mg/kg
TEAE any grade: decreased platelet count ([5]; all 50 patients): 80%
TEAE any grade: fatigue ([5]; all 50 patients): 76%
TEAE any grade: hyperglycaemia ([5]; all 50 patients): 80%
TEAE any grade: nausea ([5]; all 50 patients): 86%
copanlisib-related TEAE: anaemia ([5]; all 50 patients): 42%
copanlisib-related TEAE: anorexia ([5]; all 50 patients): 56%
copanlisib-related TEAE: decreased neutrophil count ([5]; all 50 patients): 62%
copanlisib-related TEAE: decreased platelet count ([5]; all 50 patients): 58%
copanlisib-related TEAE: fatigue ([5]; all 50 patients): 66%
copanlisib-related TEAE: hyperglycaemia ([5]; all 50 patients): 76%
copanlisib-related TEAE: hypertension ([5]; all 50 patients): 46%
copanlisib-related TEAE: nausea ([5]; all 50 patients): 74%
copanlisib-related TEAE: vomiting ([5]; all 50 patients): 36%
deaths considered related to study treatment ([5]; all 50 patients): No deaths
grade ⩾3 TEAE: decreased neutrophil count ([5]; all 50 patients): 62%
grade ⩾3 TEAE: decreased platelet count ([5]; all 50 patients): 38%
grade ⩾3 TEAE: fatigue ([5]; all 50 patients): 22%
grade ⩾3 TEAE: hyperglycaemia ([5]; all 50 patients): 24%
grade ⩾3 TEAE: hypertension ([5]; all 50 patients): 42%
grade ⩾3 copanlisib-related AE: decreased neutrophil count ([5]; all 50 patients): 48%
grade ⩾3 copanlisib-related AE: decreased platelet count ([5]; all 50 patients): 28%
grade ⩾3 copanlisib-related AE: hypertension ([5]; all 50 patients): 38%
patients who received insulin as remedial drug therapy ([5]; all 50 patients): 14 patients
dose modification because of copanlisib-related TEAEs ([5]; all 50 patients, 26 patients): 52%
serious AE ([5]; all 50 patients, 26 patients): 52%
dose modifications (interruption or dose reduction) for copanlisib, gemcitabine or cisplatin due to TEAEs ([5]; all 50 patients, 45 patients): 90%
at least one serious copanlisib-related AE ([5]; all 50 patients, eleven patients): 22%
serious AE: abdominal pain ([5]; all 50 patients, four patients): 8%
permanently discontinued copanlisib because of TEAEs ([5]; all 50 patients, nine patients): 18%
serious copanlisib-related AE: grade 4 sinus tachycardia and grade 4 sepsis ([5]; all 50 patients, one patient): 2%
serious AE: lung infection ([5]; all 50 patients, six patients): 12%
TEAE of grade 3 hyperglycaemia ([5]; all 50 patients, ten patients): 20%
serious AE: dehydration ([5]; all 50 patients, three patients): 6%
TEAE of grade 4 hyperglycaemia ([5]; all 50 patients, two patients): 4%
grade 4 serious TEAE: sepsis ([5]; all 50 patients, two patients): 4%
patients with infusion-related increases in plasma glucose and plasma insulin ([5]; all patients): ~80%
signs of increased nephrotoxicity caused by intrarenal accumulation of cisplatin ([5]; patients treated with copanlisib plus cisplatin, data not shown): no signs of increased nephrotoxicity
dose dependence of plasma exposure (Cmax and AUC) ([2]; dose range 0.6–0.8 mg kg^−1): nearly dose-proportional increase
half-life ([2]; human, plasma, intravenous): 25 to 26 h
effect of co-administration of CisGem on plasma exposure (Cmax and AUC(0–25)) ([2]; in vivo): No substantial differences; also recorded: no influence
PI3K isoform selectivity [6]: predominant activity against PI3K-δ and PI3K-α isoforms
inhibition of MATE2-K [7]: strong inhibitor

SMILES: CC[C@H](Nc1ncnc2[nH]cnc12)c1nc2cccc(F)c2c(=O)n1-c1ccccc1 [idelalisib]
rate of AEs in combination with other anti-cancer therapies [8]: increased rate of AEs, including deaths

The next lines start with the values.

influence of co-administration with copanlisib on PK ([2]; in vivo): not influenced
SMILES: O=c1ccn([C@@H]2O[C@H](CO)[C@@H](O)C2(F)F)c(=O)[nH]1 [dFdU, 2’,2’-difluorodeoxyuridine]

influence of co-administration with copanlisib on PK ([2]; in vivo): not influenced
SMILES: Nc1ccn([C@@H]2O[C@H](CO)[C@@H](O)C2(F)F)c(=O)n1 [gemcitabine, reference compound]
